# Values joined by “and” are separate entries in the source; they are usually repeats but may differ in a detail not shown here. Equal values may be shown once.
# Molecular target: T1, Neuropeptide Y receptor type 1 (Homo sapiens, UniProt P25929)
# T1 sequence (P25929 whole entry): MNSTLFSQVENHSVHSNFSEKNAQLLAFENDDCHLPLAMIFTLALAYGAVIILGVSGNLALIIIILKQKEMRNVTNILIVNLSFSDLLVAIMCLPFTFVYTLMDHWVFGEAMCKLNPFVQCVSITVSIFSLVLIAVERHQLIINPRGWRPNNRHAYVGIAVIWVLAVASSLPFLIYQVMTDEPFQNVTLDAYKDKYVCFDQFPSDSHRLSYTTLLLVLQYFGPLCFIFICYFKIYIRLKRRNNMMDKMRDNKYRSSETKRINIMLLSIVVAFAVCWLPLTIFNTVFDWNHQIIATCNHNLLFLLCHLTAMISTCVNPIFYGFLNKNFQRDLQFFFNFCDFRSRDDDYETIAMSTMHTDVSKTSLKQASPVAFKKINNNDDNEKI
# Assay: Binding affinity at cloned Neuropeptide Y-1 receptor expressed in AV-12 cells is evaluated.
# Type: cell-based, AV12
row,Compound,Ki
1,Cc1cccc2c1nc(COc1ccc(Cl)cc1)n2CCCC1CCN(CCCC(N)=O)CC1,88 nM
2,Cc1cccc2c1nc(COc1ccc(Cl)cc1)n2CCCC1CCN(CCCC(=O)N2CCCCC2)CC1,21 nM
3,Cc1cccc2c1nc(COc1ccc(Cl)cc1)n2CCCC1CCN(CC(=O)N2CCCCC2)CC1,136 nM
4,CCOC(=O)CN1CCC(CCCn2c(COc3ccc(Cl)cc3)nc3c(C)cccc32)CC1,427 nM
5,Cc1cccc2c1nc(COc1ccc(Cl)cc1)n2CCCC1CCN(CCCN2CCCCC2)CC1,4.5 nM
6,CCCN1CCC(CCCn2c(COc3ccc(Cl)cc3)nc3c(C)cccc32)CC1,29 nM
7,Cc1cccc2c1nc(COc1ccc(Cl)cc1)n2CCCC1CCN(CCCC(=O)O)CC1,1630 nM
8,Cc1cccc2c1nc(COc1ccc(Cl)cc1)n2CCCC1CCN(CCN2CCCCC2)CC1,37 nM
9,Cc1cccc2c1nc(COc1ccc(Cl)cc1)n2CCCC1CCNCC1,335 nM
10,Cc1cccc2c1nc(COc1ccc(Cl)cc1)n2CCCC1CCN(CCC(C)C)CC1,11 nM
11,Cc1cccc2c1nc(COc1ccc(Cl)cc1)n2CCCC1CCN(CC(=O)O)CC1,2190 nM
12,Cc1cccc2c1nc(COc1ccc(Cl)cc1)n2CCCC1CCN(Cc2ccccc2)CC1,109 nM
13,Cc1cccc2c1nc(COc1ccc(Cl)cc1)n2CCCC1CCN(CCCc2ccccc2)CC1,57 nM
14,Cc1cccc2c1nc(COc1ccc(Cl)cc1)n2CCCC1CCN(C(=O)CCN2CCCCC2)CC1,260 nM
15,Cc1cccc2c1nc(COc1ccc(Cl)cc1)n2CCCC1CCN(CCc2ccccc2)CC1,29 nM
16,CCOC(=O)CCCN1CCC(CCCn2c(COc3ccc(Cl)cc3)nc3c(C)cccc32)CC1,29 nM
17,Cc1cccc2c1nc(COc1ccc(Cl)cc1)n2CCCC1CCN(CCCCN2CCCCC2)CC1,52 nM and 5.7 nM
18,Cc1cccc2c1nc(COc1ccc(Cl)cc1)n2CCCC1CCN(C)CC1,52 nM

# Test system: SK-N-MC
# Assay: Tested to reverse NPY induced inhibition of forskolin-stimulated cAMP in SK-N-MC cells is evaluated.
# Type: functional, cell-based, Homo sapiens
row,Compound,Ki
1,Cc1cccc2c1nc(COc1ccc(Cl)cc1)n2CCCC1CCN(CCCN2CCCCC2)CC1,46 nM

# Molecular target: T1, Neuropeptide Y receptor type 1
# Assay: Binding affinity at cloned Neuropeptide Y receptor type 1 expressed in AV-12 cells is evaluated.
# Type: cell-based, AV12
row,Compound,Ki
1,Clc1ccc(OCc2nc3c(OCCCN4CCCCC4)cccc3n2CCCC2CCCNC2)cc1 (stereo unspecified),2 nM

# Test system: SK-N-MC
# Assay: Inhibition of NPY induced intracellular Ca++ mobilization in SK-N-MC cells is evaluated.
# Type: functional, cell-based, Homo sapiens
row,Compound,Ki
1,Cc1cccc2c1nc(COc1ccc(Cl)cc1)n2CCCC1CCN(CCCN2CCCCC2)CC1,26 nM

# — ChEMBL document CHEMBL1130762, “Structure-activity relationships of a series of 1-substituted-4-methylbenzimidazole neuropeptide Y-1 receptor antagonists” (Bioorg Med Chem Lett, 1998)
